Laboratory results reported in patent publication US20220202739A1, “ENDOCANNABINOID MIMETIC AND ANTI-INFLAMMATORY COMPOUND CONTAINING COMPOSITIONS, METHODS OF PREPARATION AND USES THEREOF” (priority 2019, published 2022).
Read-outs that look alike come from different tables or passages of the source.

Columns and labels:
Assay type in all cases: cell-based
NFKB1 = assay: Gene expression custom microarray, human skin fibroblasts (Example 1): NFKB1; conditions: human skin fibroblasts, 10 uM, 24 hr; for fold induction at 10 µM: Skin fibroblast, read-out: NFKB1↓ gene expression, fold increase or decrease vs untreated cells
Description: (§1) Cell cultures: A human skin fibroblast cell culture (or cultures) was obtained through the Coriell Cell Repository from the National Institute on Aging Cell Repository (Camden, N.J.), or Promocell GmbH (Heidelberg, Germany). The initial culture was selected from the following cell lines: AG13066, AG11557, AG11796 or GM03651E. The cell lines were derived from donors as follows:
(§2) Experimental phase: When the appropriate quantity of cells had been grown, they were detached as described above, but at the final step were seeded into each well of one or more 6 well dishes. Each well received 2 ml of the cell suspension so they were seeded equally. The dishes were returned to the incubator until 85-95% confluency was reached.
(§3) It is at this stage that all wells were rinsed in PBS after aspirating the growth media. The compound(s) to be tested were previously mixed into a suitable solvent (e.g., DMSO or ethanol) that can be diluted to the desired concentration of test compound (10 μl) in the culture wells without exceeding maximum solvent concentrations and adversely effecting cell viability, and mixed with basal media. NOTE: Standard maximum levels of solvent are 0.1% for DMSO and 0.5% for ETOH.
(§4) Every 2 wells on the 6 well plate served as a biological replicate for the purposes of RNA isolation and genetic expression evaluations making each 6 well dish an n=3 for the test compound(s) contained in the media. Negative control plates (no test compound(s) and only basal media) were also generated. The plates were returned to the incubator for 24 hrs.
(§5) At the end of the 24 hr time period, the plates were removed from the incubator, the test media aspirated, and the cells rinsed with PBS. RNA isolation is performed using the BioRad Aurum Total RNA Mini Kit (Hercules, Calif.) per manufacturer's protocol; which is described, in brief, below: • Add 350 μl of lysis buffer to each well. Pipet multiple times to ensure thorough lysis. Add lysed cells to the collection tube. • Add 350 μl of 70% ETOH to the collection tube and mix thoroughly. • Pipet the generated lysate onto the spin column placed in a new 2 ml tube. Centrifuge for 30 sec between 8,000 and 10,000 g. • Place the spin column containing the now bound RNA, in a new 2 ml tube. Add 700 μl of low stringency wash solution to the spin column. Centrifuge for 30 sec between 8,000 and 10,000 g. Discard the flow through and replace spin column. • Add 80 μl of DNase I dilution to the spin column and incubate at room temperature for 15 minutes. • Add 700 μl of high stringency wash solution to the column and centrifuge for 30 sec between 8,000 and 10,000 g. Discard flow through. • Add 700 μl of low stringency wash solution to the column and centrifuge for 60 sec between 8,000 and 10,000 g. Discard flow through. • Centrifuge for 2 minutes to remove residual wash solution. • Transfer spin column to new 1.5 ml collection tube and add 80 μl of elution solution to the column. Allow 1 minute for saturation of the membrane and then centrifuge for 2 minutes to complete the RNA elution. • Quantify the quantity of RNA and store at −20 C° until use (no more than 1 month)
(§6) The genes tested were: • Cannabinoid receptor 1 (CB1(CNR1)) • Cannabinoid receptor 2 (CB2 (CNR2)) • Fatty acid amide hydrolase (FAAH) • Monoacylglycerol lipase (MGLL, i.e., MAGL) • Peroxisome proliferator-activated receptor gamma (PPARG) • Nuclear factor kappa-light-chain-enhancer of activated B cells (NFκβ) • Interleukin 1 Alpha (IL1alpha) • Cyclooxygenase 1 (PTGS1, i.e., COX1) • Transient receptor potential cation channel subfamily A member 1 (TRPA1) • Transient receptor potential cation channel subfamily V member 1 (TRPV1) • Transient receptor potential cation channel subfamily M member 8 (TRPM8) • Hemoglobin Subunit Beta (HBB) REFERENCE GENE • Ribosomal Protein L13a (RPL13A) REFERENCE GENE

TRPA1 = assay: Gene expression custom microarray, human skin fibroblasts (Example 1): TRPA1; conditions: for fold induction at 10 µM: Skin fibroblast, read-out: TRPA1↑ gene expression, fold increase or decrease vs untreated cells
Description: as §1, §2
as §3, with “ETOH. The concentration of each test compound is found in Tables 1 & 2.” for “ETOH.”
as §4, §5
(§7) The genes tested were: • Cannabinoid receptor 1 (CB1(CNR1)) • Cannabinoid receptor 2 (CB2 (CNR2)) • Fatty acid amide hydrolase (FAAH) • Monoacylglycerol lipase (MGLL, i.e., MAGL) • Peroxisome proliferator-activated receptor gamma (PPARG) • Nuclear factor kappa-light-chain-enhancer of activated B cells (NFκβ) • Interleukin 1 Alpha (IL1alpha) • Cyclooxygenase 1 (PTGS1, i.e., COX1) • Transient receptor potential cation channel subfamily A member 1 (TRPA1) • Transient receptor potential cation channel subfamily V member 1 (TRPV1) • Transient receptor potential cation channel subfamily M member 8 (TRPM8) • Hemoglobin Subunit Beta (HBB) REFERENCE GENE • Ribosomal Protein L13a (RPL13A) REFERENCE GENE […]

PTGS1 = assay: Gene expression custom microarray, human skin fibroblasts (Example 1): PTGS1; conditions: human skin fibroblasts, 10 uM, 24 hr; for fold induction at 10 µM: Skin fibroblast, read-out: PTGS1↓ gene expression, fold increase or decrease vs untreated cells
Description: as §1, §2
as §3, with “ETOH. The concentration of each test compound is found in Tables 1 & 2.” for “ETOH.”
as §4, §5, §7

MAGL = assay: Gene expression custom microarray, human skin fibroblasts (Example 1): MAGL; conditions: human skin fibroblasts, 10 uM, 24 hr; for fold induction at 10 µM: Skin fibroblast, read-out: MAGL↓ gene expression, fold increase or decrease vs untreated cells
Description: as §1, §2
as §3, with “ETOH. The concentration of each test compound is found in Tables 1 & 2.” for “ETOH.”
as §4, §5, §7

TRPM8 = assay: Gene expression custom microarray, human skin fibroblasts (Example 1): TRPM8; conditions: 24 hr
Description: as §1, §2
as §3, with “ETOH. The concentration of each test compound is found in Tables 1 & 2.” for “ETOH.”
as §4, §5, §7

CNR1 = assay: Gene expression custom microarray, human skin fibroblasts (Example 1): CNR1
Description: as §1, §2
as §3, with “ETOH. The concentration of each test compound is found in Tables 1 & 2.” for “ETOH.”
as §4, §5, §7

FAAH = assay: Gene expression custom microarray, human skin fibroblasts (Example 1): FAAH; conditions: human skin fibroblasts, 10 uM, 24 hr; for fold induction at 10 µM: Skin fibroblast, read-out: FAAH↓ gene expression, fold increase or decrease vs untreated cells
Description: as §1, §2
as §3, with “ETOH. The concentration of each test compound is found in Tables 1 & 2.” for “ETOH.”
as §4, §5, §7

CNR2 = assay: Gene expression custom microarray, human skin fibroblasts (Example 1): CNR2; conditions: human skin fibroblasts, 10 uM, 24 hr
Description: as §1, §2
as §3, with “ETOH. The concentration of each test compound is found in Tables 1 & 2.” for “ETOH.”
as §4, §5, §7

PPARG = assay: Gene expression custom microarray, human skin fibroblasts (Example 1): PPARG; conditions: human skin fibroblasts, 10 uM, 24 hr; for fold induction at 10 µM: Skin fibroblast, read-out: PPARG↑ gene expression, fold increase or decrease vs untreated cells
Description: as §1, §2, §3, §4, §5, §6

IL1A = assay: Gene expression custom microarray, human skin fibroblasts (Example 1): IL1A; conditions: 24 hr
Description: as §1, §2
as §3, with “ETOH. The concentration of each test compound is found in Tables 1 & 2.” for “ETOH.”
as §4, §5, §7

TRPV1 = assay: Gene expression custom microarray, human skin fibroblasts (Example 1): TRPV1; conditions: 10 uM, 24 hr
Description: as §1, §2
as §3, with “ETOH. The concentration of each test compound is found in Tables 1 & 2.” for “ETOH.”
as §4
At the end of the 24 hr time period, the plates were removed from the incubator, the test media aspirated, and the cells rinsed with PBS. RNA isolation is performed using the BioRad Aurum Total RNA Mini Kit (Hercules, Calif.) per manufacturer's protocol; which is described, in brief, below: • Add 350 μl of lysis buffer to each well. Pipet multiple times to ensure thorough lysis. Add lysed cells to the collection tube. • Add 350 μl of 70% ETOH to the collection tube and mix thoroughly. • Pipet the generated lysate onto the spin column placed in a new 2 ml tube. Centrifuge for 30 sec between 8,000 and 10,000 g. • Place the spin column containing the now bound RNA, in a new 2 ml tube. Add 700 μl of low stringency wash solution to the spin column. Centrifuge for 30 sec between 8,000 and 10,000 g. […] Allow 1 minute for saturation of the membrane and then centrifuge for 2 minutes to complete the RNA elution. • Quantify the quantity of RNA and store at −20 C° until use (no more than 1 month) […]

[1] = human skin fibroblasts, 10 uM, 24 hr

**Q.** With CC(C)=CCC[C@](C)(O[C@@H]1O[C@H](CO[C@@H]2O[C@@H](CO)[C@H](O)[C@H]2O)[C@@H](O)[C@H](O)[C@H]1O)[C@H]1CC[C@]2(C)[C@@H]1[C@H](O)C[C@@H]1[C@@]3(C)CC[C@H](O[C@@H]4O[C@H](CO)[C@@H](O)[C@H](O)[C@H]4O[C@@H]4O[C@H](CO)[C@@H](O)[C@H](O)[C@H]4O)C(C)(C)[C@@H]3CC[C@]12C [Ginsenoside, ginsenoside RC] as the compound, how does the fold induction at 10 µM (NFKB1) read?
**A.** Its fold induction at 10 µM is 1.8.

**Q.** And the fold induction at 10 µM (TRPA1; Homo sapiens, 24 h)?
**A.** Its fold induction at 10 µM is 1.5.

**Q.** And the fold induction at 10 µM (PTGS1)?
**A.** The fold induction at 10 µM was 7.9.

**Q.** Which fold induction at 10 µM (MAGL) does the source give for C=CCc1ccc(O)c(-c2ccc(O)c(CC=C)c2)c1 [Honokiol] here?
**A.** Its fold induction at 10 µM is 2.7.

**Q.** And the fold induction at 10 µM (NFKB1)?
**A.** Its fold induction at 10 µM is 1.6.

**Q.** What about the fold induction at 10 µM (TRPA1; [1]) of the same compound?
**A.** The fold induction at 10 µM was 1.4.

**Q.** What about the fold induction at 10 µM (PTGS1) of the same compound?
**A.** The fold induction at 10 µM was 1.5.

**Q.** And the fold induction at 10 µM (TRPM8; Skin fibroblast, read-out: TRPM8↑ gene expression, fold increase or decrease vs untreated cells)?
**A.** The fold induction at 10 µM was 1.8.

**Q.** And the fold induction at 10 µM (CNR1; Homo sapiens, Skin fibroblast, 24 h, read-out: CNR1↑ gene expression, fold increase or decrease vs untreated cells)?
**A.** Its fold induction at 10 µM is 1.2.

**Q.** What about the fold induction at 10 µM (FAAH) of the same compound?
**A.** The fold induction at 10 µM was 2.3.

**Q.** What about the fold induction at 10 µM (CNR2; Skin fibroblast, read-out: CNR2↑ gene expression, fold increase or decrease vs untreated cells) of the same compound?
**A.** The fold induction at 10 µM was 1.3.

**Q.** What about the fold induction at 10 µM (PPARG) of the same compound?
**A.** Its fold induction at 10 µM is 2.3.

**Q.** And the fold induction at 10 µM (IL1A; Skin fibroblast, read-out: IL1A↓ gene expression, fold increase or decrease vs untreated cells)?
**A.** The fold induction at 10 µM was 1.8.

**Q.** For CC1CCC(C(C)C)C(O)C1 (centres unmarked) [Menthol, reference compound], which fold induction at 10 µM (MAGL) is on record?
**A.** Its fold induction at 10 µM is 2.7.

**Q.** And the fold induction at 10 µM (NFKB1)?
**A.** Its fold induction at 10 µM is 3.4.

**Q.** And the fold induction at 10 µM (TRPA1; [1])?
**A.** Its fold induction at 10 µM is 2.5.

**Q.** What about the fold induction at 10 µM (PTGS1) of the same compound?
**A.** The fold induction at 10 µM was 7.8.

**Q.** What about the fold induction at 10 µM (FAAH) of the same compound?
**A.** The fold induction at 10 µM was 2.

**Q.** And the fold induction at 10 µM (PPARG)?
**A.** Its fold induction at 10 µM is 1.8.

**Q.** Which fold induction at 10 µM (MAGL) does the source give for COC(=O)c1ccccc1O [Methyl Salicylate, reference compound] here?
**A.** Its fold induction at 10 µM is 2.4.

**Q.** What about the fold induction at 10 µM (NFKB1) of the same compound?
**A.** Its fold induction at 10 µM is 1.9.

**Q.** And the fold induction at 10 µM (TRPA1; [1])?
**A.** Its fold induction at 10 µM is 3.

**Q.** What about the fold induction at 10 µM (PTGS1) of the same compound?
**A.** Its fold induction at 10 µM is 1.4.

**Q.** And the fold induction at 10 µM (PPARG)?
**A.** The fold induction at 10 µM was 1.8.

**Q.** Which results are given for CCCCCCCC/C=C\CCCCCCCC(=O)NCCO [N-Oleylethanolamide]?
**A.** MAGL↓ gene expression, fold increase or decrease vs untreated cells (MAGL): 2.5 fold; NFKB1↓ gene expression, fold increase or decrease vs untreated cells (NFKB1): 1.5 fold; TRPA1↑ gene expression, fold increase or decrease vs untreated cells (TRPA1; [1]): 1.1 fold; PTGS1↓ gene expression, fold increase or decrease vs untreated cells (PTGS1): 1.5 fold; TRPM8↑ gene expression, fold increase or decrease vs untreated cells (TRPM8; 10 uM): −1.4 fold; CNR1↑ gene expression, fold increase or decrease vs untreated cells (CNR1; [1]): −1.9 fold; FAAH↓ gene expression, fold increase or decrease vs untreated cells (FAAH): −1.1 fold; CNR2↑ gene expression, fold increase or decrease vs untreated cells (CNR2): −2.4 fold; TRPV1↑ gene expression, fold increase or decrease vs untreated cells (TRPV1): −1.6 fold; PPARG↑ gene expression, fold increase or decrease vs untreated cells (PPARG): 2.4 fold; IL1A↓ gene expression, fold increase or decrease vs untreated cells (IL1A; 10 uM): −1.9 fold
